Measurements: PubChem BioAssay AID328 (DTP/NCI, 2004)
Several values for one entry are separate records, joined by “and”; a condition that tells them apart may be missing. Identical values can stand only once. Inconclusive results and toxic doses are left out.

Test system: BDF1 mice, P388 leukemia ip, median survival T/C
Assay: NCI In Vivo Anticancer Drug Screen. Data for tumor model P388 Leukemia (intraperitoneal) in B6D2F1 (BDF1) mice
Conditions: endpoint: median survival time, higher = longer survival
Method in brief: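 In tumour-bearing mice, survival after compound treatment is set against the vehicle group and given as a quotient.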

[1] = dose: 100.0 mg/kg/injection, schedule: Q01DX009 (ip), vehicle: saline
[2] = dose: 100.0 mg/kg/injection, schedule: Q04DX003 (ip), vehicle: saline
[3] = dose: 200.0 mg/kg/injection, schedule: Q04DX003 (ip), vehicle: saline
[4] = dose: 400.0 mg/kg/injection, schedule: Q01DX009 (ip), vehicle: saline
[5] = dose: 400.0 mg/kg/injection, schedule: Q04DX003 (ip), vehicle: saline
[6] = dose: 200.0 mg/kg/injection, schedule: Q01DX001 (ip), vehicle: saline with Tween-80
[7] = dose: 400.0 mg/kg/injection, schedule: Q01DX001 (ip), vehicle: saline with Tween-80
[8] = dose: 12.5 mg/kg/injection, schedule: Q01DX009 (ip), vehicle: saline with Tween-80
[9] = dose: 25.0 mg/kg/injection, schedule: Q01DX009 (ip), vehicle: saline with Tween-80
[10] = dose: 50.0 mg/kg/injection, schedule: Q01DX009 (ip), vehicle: saline with Tween-80
[11] = dose: 50.0 mg/kg/injection, schedule: Q04DX003 (ip), vehicle: saline with Tween-80
[12] = dose: 100.0 mg/kg/injection, schedule: Q04DX003 (ip), vehicle: saline with Tween-80
[13] = dose: 200.0 mg/kg/injection, schedule: Q04DX003 (ip), vehicle: saline with Tween-80
[14] = dose: 400.0 mg/kg/injection, schedule: Q04DX003 (ip), vehicle: saline with Tween-80
[15] = dose: 100.0 mg/kg/injection, schedule: Q01DX009 (ip), vehicle: saline with Tween-80
[16] = dose: 200.0 mg/kg/injection, schedule: Q01DX009 (ip), vehicle: saline with Tween-80
[17] = dose: 400.0 mg/kg/injection, schedule: Q01DX009 (ip), vehicle: saline with Tween-80
[18] = dose: 25.0 mg/kg/injection, schedule: Q01DX009 (ip), vehicle: saline
[19] = dose: 50.0 mg/kg/injection, schedule: Q01DX009 (ip), vehicle: saline
[20] = dose: 200.0 mg/kg/injection, schedule: Q01DX009 (ip), vehicle: saline

In the case of `Cn1c(O)c(C=N)c(=O)[nH]c1=O`, the T/C [1] is reported as 100 % of control, the T/C [2] is reported as 100 % of control and the T/C [3] is reported as 92 % of control. The T/C [4] was 109 % of control and the T/C [5] was 107 % of control.
With `CCOC(=O)c1cc[nH]c1CC(=O)NC` the T/C [6] was 112 % of control and the T/C [7] was 112 % of control.
`CCC(=O)O[C@H]1CC[C@H]2[C@@H]3CC(=C(Br)Br)C4=CC(=O)CC[C@]4(C)[C@H]3CC[C@]12C` was tested, and the T/C [8] was 91 % of control, the T/C [9] was 100 % of control and the T/C [10] was 86 % of control and 90 % of control.
In the case of `NC(=O)NC(C(=O)O)(c1ccccc1)C1CCC1` (stereo not drawn), the T/C [11] is reported as 99 % of control, the T/C [12] is reported as 91 % of control and the T/C [13] is reported as 95 % of control. The T/C [14] was 95 % of control.
For `CC(=O)NCc1ccc([N+](=O)[O-])cc1`, the T/C [9] was 103 % of control, the T/C (dose: 25.0 mg/kg/injection, schedule: Q04DX003 (ip), vehicle: saline with Tween-80) was 111 % of control and the T/C [10] was 103 % of control. For the same compound, the T/C [11] was 115 % of control, the T/C [15] was 100 % of control and the T/C [12] was 111 % of control. The T/C [16] was 119 % of control, the T/C [13] was 109 % of control and the T/C [17] was 95 % of control. For the same compound, the T/C [14] was 118 % of control.
For `COc1cc(/C=C/C(=O)O)ccc1OC(C)=O`, the T/C (dose: 100.0 mg/kg/injection, schedule: Q01DX001 (ip), vehicle: saline) was 100 % of control, the T/C (dose: 200.0 mg/kg/injection, schedule: Q01DX001 (ip), vehicle: saline) was 100 % of control and the T/C (dose: 400.0 mg/kg/injection, schedule: Q01DX001 (ip), vehicle: saline) was 100 % of control.
For `COC(=O)C(CC(=O)c1ccccc1)NCc1ccccc1` (stereo not drawn), the T/C (dose: 100.0 mg/kg/injection, schedule: Q01DX001 (ip), vehicle: saline with Tween-80) was 100 % of control, the T/C [6] was 95 % of control and the T/C [7] was 100 % of control.
For `Cc1cc(NC(=O)NCc2ccc(N)cc2)ccc1S(=O)(=O)F`, the T/C [18] was 97 % of control, the T/C [19] was 109 % of control and the T/C (dose: 50.0 mg/kg/injection, schedule: Q04DX003 (ip), vehicle: saline) was 102 % of control. The T/C (dose: 75.0 mg/kg/injection, schedule: Q01DX009 (ip), vehicle: saline) was 115 % of control, the T/C [1] was 90 % of control and 124 % of control and the T/C [2] was 102 % of control. For the same compound, the T/C (dose: 150.0 mg/kg/injection, schedule: Q01DX009 (ip), vehicle: saline) was 92 % of control, the T/C [20] was 106 % of control and the T/C [3] was 100 % of control. The T/C [4] was 99 % of control and the T/C [5] was 97 % of control.
For `O=C1CN(C(=O)CN2C(=O)c3ccccc3C2=O)C2(CCCCC2)O1`, the T/C [12] was 100 % of control and the T/C [14] was 100 % of control.
With `COc1ccccc1NC(=O)O/N=C/c1ccccn1` the T/C (dose: 100.0 mg/kg/injection, schedule: Q01DX001 (ip), vehicle: other) was 100 % of control, the T/C (dose: 200.0 mg/kg/injection, schedule: Q01DX001 (ip), vehicle: other) was 95 % of control and the T/C (dose: 400.0 mg/kg/injection, schedule: Q01DX001 (ip), vehicle: other) was 95 % of control.
In the case of `CCCCCCCCCCCCCCSC1CC(=O)OC1=O` (stereo not drawn), the T/C [10] is reported as 98 % of control, the T/C [15] is reported as 91 % of control and the T/C [16] is reported as 96 % of control.
With `COc1cccc2c1C(=O)c1c(O)c3c(c(O)c1C2=O)C[C@@](O)(/C(C)=N/NC(=O)c1ccc(Cl)c(Cl)c1)C[C@@H]3OC1CC(N)C(O)C(C)O1` (stereo partly drawn) the T/C (dose: 0.5 mg/kg/injection, schedule: Q01DX009 (ip), vehicle: water) was 202 % of control, the T/C (dose: 1.0 mg/kg/injection, schedule: Q01DX009 (ip), vehicle: water) was 234 % of control and 156 % of control and the T/C (dose: 2.0 mg/kg/injection, schedule: Q01DX009 (ip), vehicle: water) was 295 % of control and 186 % of control. For the same compound, the T/C (dose: 4.0 mg/kg/injection, schedule: Q01DX009 (ip), vehicle: water) was 295 % of control and 186 % of control.
With `OCC1=CCCCC1` the T/C [10] was 106 % of control, the T/C [15] was 98 % of control and the T/C [16] was 104 % of control.
With `CCOC(=O)C(O)c1cccc(OC)c1` (stereo not drawn) the T/C [15] was 100 % of control, the T/C (dose: 100.0 mg/kg/injection, schedule: Q04DX003 (ip), vehicle: saline sonified) was 118 % of control and the T/C [16] was 100 % of control. The T/C (dose: 200.0 mg/kg/injection, schedule: Q04DX003 (ip), vehicle: saline sonified) was 100 % of control, the T/C [17] was 104 % of control and the T/C (dose: 400.0 mg/kg/injection, schedule: Q04DX003 (ip), vehicle: saline sonified) was 100 % of control.
`CCSc1ccc2c(c1)N(CCCN1CCN(C)CC1)c1ccccc1S2` was tested, and the T/C (dose: 15.0 mg/kg/injection, schedule: Q04DX003 (ip), vehicle: saline) was 110 % of control, the T/C [9] was 112 % of control and the T/C [18] was 92 % of control. For the same compound, the T/C (dose: 30.0 mg/kg/injection, schedule: Q04DX003 (ip), vehicle: saline) was 120 % of control, the T/C [10] was 91 % of control and the T/C [19] was 103 % of control. The T/C [2] was 90 % of control, the T/C (dose: 120.0 mg/kg/injection, schedule: Q04DX003 (ip), vehicle: saline) was 105 % of control and the T/C [3] was 150 % of control.
In the case of `CNNCc1ccc(/C=N/NC(N)=S)cc1`, the T/C (dose: 6.25 mg/kg/injection, schedule: Q01DX009 (ip), vehicle: water) is reported as 106 % of control, the T/C (dose: 12.5 mg/kg/injection, schedule: Q01DX009 (ip), vehicle: water) is reported as 114 % of control and the T/C (dose: 25.0 mg/kg/injection, schedule: Q01DX009 (ip), vehicle: water) is reported as 92 % of control. For the same compound, the T/C (dose: 50.0 mg/kg/injection, schedule: Q01DX009 (ip), vehicle: water) was 92 % of control.
`O[C@H](CN1CC1)[C@@H](O)CN1CC1` was tested, and the T/C (dose: 62.5 micrograms/kg/injection, schedule: Q01DX010 (ip), vehicle: saline) was 235 % of control, the T/C (dose: 125.0 micrograms/kg/injection, schedule: Q01DX010 (ip), vehicle: saline) was 230 % of control and 186 % of control and the T/C (dose: 250.0 micrograms/kg/injection, schedule: Q01DX010 (ip), vehicle: saline) was 227 % of control and 187 % of control. For the same compound, the T/C (dose: 500.0 micrograms/kg/injection, schedule: Q01DX010 (ip), vehicle: saline) was 116 % of control and 122 % of control.
In the case of `Cc1cc(O)c(C(c2ccccc2)c2c(O)cc(C)[nH]c2=O)c(=O)[nH]1`, the T/C [10] is reported as 94 % of control and the T/C [15] is reported as 86 % of control.
`CO[C@H]1/C=C/O[C@@]2(C)Oc3c(C)c(O)c4c(O)c(c(/C=N/N5CCN(C)CC5)c(O)c4c3C2=O)NC(=O)/C(C)=C\C=C\[C@H](C)[C@H](O)[C@@H](C)[C@@H](O)[C@@H](C)[C@H](OC(C)=O)[C@@H]1C` was tested, and the T/C (dose: 50.0 mg/kg/injection, schedule: Q01DX010 (ip), vehicle: saline) was 109 % of control, the T/C (dose: 100.0 mg/kg/injection, schedule: Q01DX010 (ip), vehicle: saline) was 114 % of control and the T/C (dose: 200.0 mg/kg/injection, schedule: Q01DX010 (ip), vehicle: saline) was 109 % of control. For the same compound, the T/C (dose: 400.0 mg/kg/injection, schedule: Q01DX010 (ip), vehicle: saline) was 109 % of control.
In the case of `O=C(Cn1cc(F)c(=O)[nH]c1=O)c1cccs1`, the T/C [1] is reported as 100 % of control, the T/C [2] is reported as 95 % of control and the T/C [20] is reported as 100 % of control. The T/C [3] was 90 % of control, the T/C [4] was 95 % of control and the T/C [5] was 90 % of control.
With `Cc1cccc(NC(=O)c2ccccc2)n1` the T/C [8] was 91 % of control, the T/C [9] was 91 % of control and the T/C [10] was 104 % of control.
With `CC(CC#N)NC(=O)C1CCC(N)=N1` (stereo not drawn) the T/C [1] was 111 % of control and the T/C [4] was 103 % of control.
In the case of `CN(C)/C=C/C=C1C(=O)N(C)C(=O)N(C)C1=O`, the T/C (dose: 50.0 mg/kg/injection, schedule: Q01DX009 (ip), vehicle: other) is reported as 94 % of control, the T/C (dose: 100.0 mg/kg/injection, schedule: Q01DX009 (ip), vehicle: other) is reported as 97 % of control and the T/C (dose: 200.0 mg/kg/injection, schedule: Q01DX009 (ip), vehicle: other) is reported as 102 % of control.
`COC1(c2ccc([N+](=O)[O-])o2)OC1(C)C` (stereo not drawn) was tested, and the T/C [8] was 111 % of control, the T/C [9] was 118 % of control and the T/C [10] was 113 % of control. For the same compound, the T/C [15] was 111 % of control, the T/C [12] was 99 % of control and the T/C [16] was 117 % of control. For the same compound, the T/C [13] was 107 % of control, the T/C [17] was 108 % of control and the T/C [14] was 109 % of control.
